Measurements from ChEMBL document CHEMBL4813932, “Terpenoid Constituents of Perovskia artemisioides Aerial Parts with Inhibitory Effects on Bacterial Biofilm Growth” (2021).

Experiments:
Test in all cases: microbe, parasite or virus in culture
Format in all cases: functional
[1] = tested on: Acinetobacter baumannii; details: ATCC 19606 = CIP 70.34 = JCM 6841, time 48 hrs
Description: Antibiofilm activity against Acinetobacter baumannii ATCC 19606 assessed as inhibition of bacterial metabolism within the biofilm at 4 ug/ml measured after 48 hrs by MTT assay relative to control

[2] = tested on: Pseudomonas aeruginosa; details: ATCC 50071, time 48 hrs
Description: Antibiofilm activity against Pseudomonas aeruginosa ATCC 50071 assessed as inhibition of bacterial metabolism within the biofilm at 8 ug/ml measured after 48 hrs by MTT assay relative to control

[3] = tested on: Pseudomonas aeruginosa; details: ATCC 50071, time 48 hrs; remark: listed apart in the source
Description: Antibiofilm activity against Pseudomonas aeruginosa ATCC 50071 assessed as inhibition of biofilm formation at 8 ug/ml measured after 48 hrs by crystal violet staining based assay relative to control

[4] = tested on: Acinetobacter baumannii; details: ATCC 19606 = CIP 70.34 = JCM 6841, time 48 hrs; remark: listed apart in the source
Description: Antibiofilm activity against Acinetobacter baumannii ATCC 19606 assessed as inhibition of bacterial metabolism within the biofilm at 8 ug/ml measured after 48 hrs by MTT assay relative to control

[5] = tested on: Escherichia coli; details: DSM 8579, time 48 hrs
Description: Antibiofilm activity against Escherichia coli DSM 8579 assessed as inhibition of bacterial metabolism within the biofilm at 80 ug/ml measured after 48 hrs by MTT assay relative to control

[6] = tested on: Acinetobacter baumannii; details: ATCC 19606 = CIP 70.34 = JCM 6841, time 48 hrs; remark: listed apart in the source
Description: Antibiofilm activity against Acinetobacter baumannii ATCC 19606 assessed as inhibition of biofilm formation at 8 ug/ml measured after 48 hrs by crystal violet staining based assay relative to control

[7] = tested on: Escherichia coli; details: DSM 8579, time 48 hrs; remark: listed apart in the source
Description: Antibiofilm activity against Escherichia coli DSM 8579 assessed as inhibition of biofilm formation at 80 ug/ml measured after 48 hrs by crystal violet staining based assay relative to control

[8] = tested on: Staphylococcus aureus; details: ATCC 25923, time 48 hrs
Description: Antibiofilm activity against Staphylococcus aureus ATCC 25923 assessed as inhibition of bacterial metabolism within the biofilm at 4 ug/ml measured after 48 hrs by MTT assay relative to control

[9] = tested on: Escherichia coli; details: DSM 8579, time 48 hrs; remark: listed apart in the source
Description: Antibiofilm activity against Escherichia coli DSM 8579 assessed as inhibition of biofilm formation at 40 ug/ml measured after 48 hrs by crystal violet staining based assay relative to control

[10] = tested on: Listeria monocytogenes; details: ATCC 7644, time 48 hrs
Description: Antibiofilm activity against Listeria monocytogenes ATCC 7644 assessed as inhibition of bacterial metabolism within the biofilm at 4 ug/ml measured after 48 hrs by MTT assay relative to control

[11] = tested on: Pectobacterium carotovorum; details: ATCC 15713, time 48 hrs
Description: Antibiofilm activity against Pectobacterium carotovorum ATCC 15713 assessed as inhibition of biofilm formation at 8 ug/ml measured after 48 hrs by crystal violet staining based assay relative to control

[12] = tested on: Pectobacterium carotovorum; details: ATCC 15713, time 48 hrs; remark: listed apart in the source
Description: Antibiofilm activity against Pectobacterium carotovorum ATCC 15713 assessed as inhibition of bacterial metabolism within the biofilm at 4 ug/ml measured after 48 hrs by MTT assay relative to control

[13] = tested on: Pseudomonas aeruginosa; details: ATCC 50071, time 48 hrs; remark: listed apart in the source
Description: Antibiofilm activity against Pseudomonas aeruginosa ATCC 50071 assessed as inhibition of bacterial metabolism within the biofilm at 4 ug/ml measured after 48 hrs by MTT assay relative to control

[14] = tested on: Acinetobacter baumannii; details: ATCC 19606 = CIP 70.34 = JCM 6841, time 48 hrs; remark: listed apart in the source
Description: Antibiofilm activity against Acinetobacter baumannii ATCC 19606 assessed as inhibition of biofilm formation at 4 ug/ml measured after 48 hrs by crystal violet staining based assay relative to control

[15] = tested on: Staphylococcus aureus; details: ATCC 25923, time 48 hrs; remark: listed apart in the source
Description: Antibiofilm activity against Staphylococcus aureus ATCC 25923 assessed as inhibition of biofilm formation at 8 ug/ml measured after 48 hrs by crystal violet staining based assay relative to control

[16] = tested on: Pseudomonas aeruginosa; details: ATCC 50071, time 48 hrs; remark: listed apart in the source
Description: Antibiofilm activity against Pseudomonas aeruginosa ATCC 50071 assessed as inhibition of biofilm formation at 4 ug/ml measured after 48 hrs by crystal violet staining based assay relative to control

[17] = tested on: Pectobacterium carotovorum; details: ATCC 15713, time 48 hrs; remark: listed apart in the source
Description: Antibiofilm activity against Pectobacterium carotovorum ATCC 15713 assessed as inhibition of biofilm formation at 4 ug/ml measured after 48 hrs by crystal violet staining based assay relative to control

[18] = tested on: Pectobacterium carotovorum; details: ATCC 15713, time 48 hrs; remark: listed apart in the source
Description: Antibiofilm activity against Pectobacterium carotovorum ATCC 15713 assessed as inhibition of bacterial metabolism within the biofilm at 8 ug/ml measured after 48 hrs by MTT assay relative to control

[19] = tested on: Listeria monocytogenes; details: ATCC 7644, time 48 hrs; remark: listed apart in the source
Description: Antibiofilm activity against Listeria monocytogenes ATCC 7644 assessed as inhibition of biofilm formation at 8 ug/ml measured after 48 hrs by crystal violet staining based assay relative to control

[20] = tested on: Staphylococcus aureus; details: ATCC 25923, time 48 hrs; remark: listed apart in the source
Description: Antibiofilm activity against Staphylococcus aureus ATCC 25923 assessed as inhibition of biofilm formation at 4 ug/ml measured after 48 hrs by crystal violet staining based assay relative to control

[21] = tested on: Staphylococcus aureus; details: ATCC 25923, time 48 hrs; remark: listed apart in the source
Description: Antibiofilm activity against Staphylococcus aureus ATCC 25923 assessed as inhibition of bacterial metabolism within the biofilm at 8 ug/ml measured after 48 hrs by MTT assay relative to control

[22] = tested on: Listeria monocytogenes; details: ATCC 7644, time 48 hrs; remark: listed apart in the source
Description: Antibiofilm activity against Listeria monocytogenes ATCC 7644 assessed as inhibition of biofilm formation at 4 ug/ml measured after 48 hrs by crystal violet staining based assay relative to control

[23] = tested on: Escherichia coli; details: DSM 8579, time 48 hrs; remark: listed apart in the source
Description: Antibiofilm activity against Escherichia coli DSM 8579 assessed as inhibition of bacterial metabolism within the biofilm at 40 ug/ml measured after 48 hrs by MTT assay relative to control

[24] = tested on: Listeria monocytogenes; details: ATCC 7644, time 48 hrs; remark: listed apart in the source
Description: Antibiofilm activity against Listeria monocytogenes ATCC 7644 assessed as inhibition of bacterial metabolism within the biofilm at 8 ug/ml measured after 48 hrs by MTT assay relative to control

CC(C)c1cc2c(c(O)c1O)[C@@]13CCCC(C)(C)[C@@H]1[C@@H](O)[C@@H]2OC3=O [ISOROSMANOL]
inhibition at 4 µg/mL [1]: 2.5% | inhibition at 8 µg/mL [2]: 14.7% | inhibition at 8 µg/mL [3]: 80.5% | inhibition at 8 µg/mL [4]: 48.5% | inhibition at 80 µg/mL [5]: 52.1% | inhibition at 8 µg/mL [6]: 43.9% | inhibition at 80 µg/mL [7]: 53% | inhibition at 4 µg/mL [8]: 0% | inhibition at 40 µg/mL [9]: 42.9% | inhibition at 4 µg/mL [10]: 16.2% | inhibition at 8 µg/mL [11]: 66.9% | inhibition at 4 µg/mL [12]: 56.4% | inhibition at 4 µg/mL [13]: 0% | inhibition at 4 µg/mL [14]: 13.2% | inhibition at 8 µg/mL [15]: 56.2% | inhibition at 4 µg/mL [16]: 75.4% | inhibition at 4 µg/mL [17]: 66.3% | inhibition at 8 µg/mL [18]: 62.8% | inhibition at 8 µg/mL [19]: 63.9% | inhibition at 4 µg/mL [20]: 0% | inhibition at 8 µg/mL [21]: 17% | inhibition at 4 µg/mL [22]: 25% | inhibition at 40 µg/mL [23]: 42.2% | inhibition at 8 µg/mL [24]: 25.2%

CCCCCC [HEXANE]
inhibition at 4 µg/mL [1]: 25.2% | inhibition at 8 µg/mL [2]: 97% | inhibition at 8 µg/mL [3]: 97.9% | inhibition at 8 µg/mL [4]: 34.7% | inhibition at 80 µg/mL [5]: 78% | inhibition at 8 µg/mL [6]: 48.5% | inhibition at 80 µg/mL [7]: 95.8% | inhibition at 4 µg/mL [8]: 98.6% | inhibition at 40 µg/mL [9]: 87.6% | inhibition at 4 µg/mL [10]: 49.1% | inhibition at 8 µg/mL [11]: 97.8% | inhibition at 4 µg/mL [12]: 45.5% | inhibition at 4 µg/mL [13]: 95.5% | inhibition at 4 µg/mL [14]: 35.7% | inhibition at 8 µg/mL [15]: 93.7% | inhibition at 4 µg/mL [16]: 94.8% | inhibition at 4 µg/mL [17]: 94.8% | inhibition at 8 µg/mL [18]: 49.4% | inhibition at 8 µg/mL [19]: 98.3% | inhibition at 4 µg/mL [20]: 71.8% | inhibition at 8 µg/mL [21]: 99.2% | inhibition at 4 µg/mL [22]: 92.4% | inhibition at 40 µg/mL [23]: 74.2% | inhibition at 8 µg/mL [24]: 77.3%

CC(C)c1cc2c(c(O)c1O)C[C@@]1(O)[C@@H](O)CCC(C)(C)[C@@H]1CC2
inhibition at 4 µg/mL [1]: 0% | inhibition at 8 µg/mL [2]: 0% | inhibition at 8 µg/mL [3]: 65.7% | inhibition at 8 µg/mL [4]: 96.7% | inhibition at 80 µg/mL [5]: 0% | inhibition at 8 µg/mL [6]: 51.7% | inhibition at 80 µg/mL [7]: 0% | inhibition at 4 µg/mL [8]: 75.8% | inhibition at 40 µg/mL [9]: 0% | inhibition at 4 µg/mL [10]: 9.6% | inhibition at 8 µg/mL [11]: 0% | inhibition at 4 µg/mL [12]: 0% | inhibition at 4 µg/mL [13]: 0% | inhibition at 4 µg/mL [14]: 48.6% | inhibition at 8 µg/mL [15]: 79.7% | inhibition at 4 µg/mL [16]: 33.4% | inhibition at 4 µg/mL [17]: 0% | inhibition at 8 µg/mL [18]: 1.5% | inhibition at 8 µg/mL [19]: 0% | inhibition at 4 µg/mL [20]: 39.3% | inhibition at 8 µg/mL [21]: 78.2% | inhibition at 4 µg/mL [22]: 0% | inhibition at 40 µg/mL [23]: 0% | inhibition at 8 µg/mL [24]: 13.1%

CC(C)c1cc2c(cc1O)[C@@]1(C)CCCC(C)(C)[C@@H]1CC2 [FERRUGINOL]
inhibition at 8 µg/mL [2]: 45.2% | inhibition at 8 µg/mL [3]: 53.2% | inhibition at 80 µg/mL [5]: 24.7% | inhibition at 80 µg/mL [7]: 37.5% | inhibition at 4 µg/mL [8]: 0% | inhibition at 40 µg/mL [9]: 19.2% | inhibition at 4 µg/mL [10]: 0% | inhibition at 4 µg/mL [13]: 20.3% | inhibition at 8 µg/mL [15]: 44.6% | inhibition at 4 µg/mL [16]: 52.2% | inhibition at 8 µg/mL [19]: 60.9% | inhibition at 4 µg/mL [20]: 38.5% | inhibition at 8 µg/mL [21]: 27.9% | inhibition at 4 µg/mL [22]: 35.6% | inhibition at 40 µg/mL [23]: 9.1% | inhibition at 8 µg/mL [24]: 14.2%

CC1(C)C[C@H]2[C@H]1CC[C@@]1(C)C[C@@]2(O)CC[C@@H]1O
inhibition at 8 µg/mL [2]: 4% | inhibition at 8 µg/mL [3]: 4% | inhibition at 80 µg/mL [5]: 18.2% | inhibition at 80 µg/mL [7]: 23.9% | inhibition at 4 µg/mL [8]: 0% | inhibition at 40 µg/mL [9]: 0% | inhibition at 4 µg/mL [10]: 0% | inhibition at 4 µg/mL [13]: 0% | inhibition at 8 µg/mL [15]: 0% | inhibition at 4 µg/mL [16]: 0% | inhibition at 8 µg/mL [19]: 38.7% | inhibition at 4 µg/mL [20]: 0% | inhibition at 8 µg/mL [21]: 0% | inhibition at 4 µg/mL [22]: 14.8% | inhibition at 40 µg/mL [23]: 0% | inhibition at 8 µg/mL [24]: 23.9%
